The source of these data is ChEMBL document CHEMBL1201862, “PubChem BioAssay data set” (2004).

Among the test systems are KM12; MDA-N; MCF7; ACHN; NCI-H522; NCI-H460; OVCAR-8; MDA-MB-231; SK-MEL-28; UACC-62; UACC-257; EKVX; RPMI-8226; RXF 393; SNB-19; HCT-15; TK-10; DU-145; CAKI-1; 786-0.
Common to all, as to test: NCI anticancer screen, dose series, 48 h

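Step 1: Grow cells in 96-well plates. Step 2: Expose to compound for 48 hours at 5 concentrations. Step 3: Interpolate endpoints linearly; if unreached, use highest concentration. GI50 is the concentration that inhibits growth by half.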 Active and inactive are the calls of the source. No stated cut-off is given here; in the data, active = GI50 up to about 1.1 µM and inactive = higher.

With `CSc1nc2cc(S(=O)(=O)N3CCCCC3)ccc2s1`, the GI50 in the test on KM12 was > 100 µM (inactive); in the test on MDA-N, > 100 µM (inactive); with MCF7, > 100 µM (inactive); in the test on ACHN, > 100 µM (inactive); in the test with NCI-H522, 79.1 µM (inactive); in the test on NCI-H460, > 100 µM (inactive). Further, the GI50 in the test with OVCAR-8 was > 100 µM (inactive); in the test on MDA-MB-231, > 100 µM (inactive); in the test with SK-MEL-28, > 100 µM (inactive); in the test on UACC-62, > 100 µM (inactive); in the test on UACC-257, 48.3 µM (inactive); in the test with EKVX, 41.3 µM (inactive). Further, the GI50 with RPMI-8226 was > 100 µM (inactive); with RXF 393, > 100 µM (inactive); in the test on SNB-19 it was > 100 µM (inactive); with HCT-15, over 100 µM; with TK-10 it was > 100 µM (inactive); in the test on DU-145, > 100 µM (inactive). In addition, the GI50 in the test with CAKI-1 and in the test on 786-0 was > 100 µM (inactive) in each case.

Turning to `C[C@]12CC[C@H]3[C@@H](CCC4=C(Br)C(=O)C=C[C@@]43O)[C@@H]1CCC2=O`, the GI50 with KM12 was 34.2 µM (inactive); with MDA-N it was 30.6 µM (inactive); in the test on MCF7, 38.9 µM (inactive); in the test on ACHN, 40.6 µM (inactive); in the test with NCI-H522, 13 µM (inactive); in the test on NCI-H460, 23.5 µM (inactive). Besides, the GI50 in the test on OVCAR-8 is 25.8 µM (inactive); in the test with MDA-MB-231, 82 µM (inactive); with SK-MEL-28, 94.2 µM (inactive); with UACC-62, 32.4 µM (inactive); in the test with UACC-257 it was 16.9 µM (inactive); in the test on EKVX it was 61.2 µM (inactive). Further, the GI50 with RPMI-8226 is 33.7 µM (inactive); in the test with RXF 393, 21.1 µM (inactive); in the test on SNB-19, 61 µM (inactive); in the test with HCT-15 it was 15.6 µM; in the test on TK-10 it was 36.6 µM (inactive); in the test with DU-145, 20.9 µM (inactive). Further, the GI50 in the test with CAKI-1 was 31.6 µM (inactive); in the test on 786-0, 24.9 µM (inactive).

Turning to `Cc1nc(Nc2ccc(Cl)cc2Cl)sc1C(=O)Nc1ccccc1`, the GI50 in the test on KM12 is 35.8 µM (inactive); in the test on MDA-N it was 81.3 µM (inactive); with MCF7, 36 µM (inactive); in the test with ACHN it was 36.1 µM (inactive); in the test with NCI-H522, 38.5 µM (inactive); in the test on NCI-H460, 37.9 µM (inactive). Besides, the GI50 is > 100 µM (inactive) in the test with OVCAR-8; 56.5 µM (inactive) with MDA-MB-231; > 100 µM (inactive) in the test with SK-MEL-28; 82.6 µM (inactive) in the test with UACC-62; 61.4 µM (inactive) in the test on UACC-257; 84.7 µM (inactive) in the test on EKVX. Besides, the GI50 with RPMI-8226 was 29.2 µM (inactive); with RXF 393, 33.3 µM (inactive); in the test with SNB-19 it was > 100 µM (inactive); in the test with HCT-15, 74.1 µM; with TK-10 it was 57.4 µM (inactive); in the test with DU-145, > 100 µM (inactive). Besides, the GI50 was 49.8 µM (inactive) in the test on CAKI-1 and 53.6 µM (inactive) in the test on 786-0.

Take `Cc1cc2c(cc1C)C(=O)C1(C2)Cc2c(C)ccc(C)c2C1=O` (stereo not given): the GI50 with KM12, in the test with MDA-N, in the test with MCF7, in the test with ACHN, with NCI-H522 and in the test with NCI-H460 was > 100 µM (inactive) each time. Besides, the GI50 with OVCAR-8, with MDA-MB-231, with SK-MEL-28, with UACC-62, with UACC-257 and in the test on EKVX was > 100 µM (inactive) each time. Also, the GI50 is > 100 µM (inactive) in the test with RPMI-8226; 84.7 µM (inactive) in the test with RXF 393; > 100 µM (inactive) with SNB-19; over 100 µM in the test with HCT-15; > 100 µM (inactive) with TK-10; > 100 µM (inactive) with DU-145. The GI50 with CAKI-1 and in the test with 786-0 was > 100 µM (inactive) each time.
